# Measured values as given in US20110172163A1, “Novel Protease Inhibitors” (QUEENSLAND UNIVERSITY OF TECHNOLOGY, priority 2008, published 2011).
# “And” between values parts separate entries of the source, which are not always exact repeats. Equal values may be shown once. Read-outs that look alike come from different tables or passages of the source. Bridge positions count the residues as written; N and C are the ends. Peptide text beside a SMILES is read from it.
# T1: bovine β-trypsin (Bos taurus, UniProt P00760)
# T1 construct: bovine β-trypsin (20 ng); purchased Sigma Chemicals
# T1 sequence (P00760 24-246): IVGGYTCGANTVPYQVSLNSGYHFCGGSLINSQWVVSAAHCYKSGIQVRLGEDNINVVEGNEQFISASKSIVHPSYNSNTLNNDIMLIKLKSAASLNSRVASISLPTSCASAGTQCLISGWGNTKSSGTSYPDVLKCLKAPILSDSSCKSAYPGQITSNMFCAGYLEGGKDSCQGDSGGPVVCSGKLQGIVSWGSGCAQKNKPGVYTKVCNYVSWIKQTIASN
# T2: human matriptase (Homo sapiens, UniProt Q9Y5Y6)
# T2 construct: purchased R&D Systems
# T2 sequence (Q9Y5Y6 615-855 limits assumed): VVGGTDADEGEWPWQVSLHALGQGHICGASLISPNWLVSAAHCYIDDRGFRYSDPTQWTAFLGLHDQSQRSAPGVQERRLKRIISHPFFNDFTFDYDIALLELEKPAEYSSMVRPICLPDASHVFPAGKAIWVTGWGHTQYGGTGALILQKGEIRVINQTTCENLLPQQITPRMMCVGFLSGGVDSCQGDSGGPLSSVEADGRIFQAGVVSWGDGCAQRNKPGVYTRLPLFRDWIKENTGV
# B1: KLK4 (Homo sapiens) (protein)
# chain: IINGEDCSPHSQPWQAALVMENELFCSGVLVHPQWVLSAAHCFQNSYTIGLGLHSLEADQEPGSQMVEASLSVRHPEYNRPLLANDLMLIKLDESVSESDTIRSISIASQCPTAGNSCLVSGWGLLANGRMPTVLQCVNVSVVSEEVCSKLYDPLYHPSMFCAGGGHDQKDSCNGDSGGPLICNGYLQGLVSFGKAPCGQVGVPGVYTNLCKFTEWIEKTVQAS
# notes: pro-region of PSA (KLK3), replacing the native KLK4 pro-region (only if the E. coli preparation was used) (N, cleaved yes); made in house
# How the values were obtained:
# trypsin = target: T3, trypsin (Bos taurus, UniProt P00760); experiment: Protein proteolysis: fibrinogen digestion by trypsin (SDS-PAGE); assay type: biochemical, bovine; conditions: SDS-PAGE
# T3 construct: purchased Sigma Chemicals
# T3 sequence (P00760 18-246 limits assumed): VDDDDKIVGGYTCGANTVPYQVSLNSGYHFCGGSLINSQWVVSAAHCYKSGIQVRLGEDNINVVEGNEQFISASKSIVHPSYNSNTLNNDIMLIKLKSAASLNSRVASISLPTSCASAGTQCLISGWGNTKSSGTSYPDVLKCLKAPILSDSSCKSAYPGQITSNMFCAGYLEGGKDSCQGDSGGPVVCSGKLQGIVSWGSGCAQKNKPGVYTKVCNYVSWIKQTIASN
# Procedure: (§1) Fibrinogen was solubilised in assay buffer to a final concentration of 1 mg/ml and digested with KLK4 (+/−inhibitor) over a period of 90 minutes at 37° C. Typically assays consisted of 5 μM protein substrate and 2.5 nM KLK4 protein or 1 nM trypsin made up to a final volume of 8 μl with assay buffer. Proteolysis was initiated by addition of KLK4 and terminated by addition of SDS PAGE sample buffer and heat denaturation at 100° C. for 5 minutes. Hydrolysis products were resolved on 10% SDS PAGE gels and compared with incubations terminated immediately after initiation (time 0), and substrate proteins incubated in assay buffer for 90 minutes in the absence of KLK4 or 4-16 mins with trypsin.
# Thrombin = conditions: cited from earlier work
# KLK4 [1] = target: T4, KLK4 (Homo sapiens, UniProt Q9Y5K2); experiment: Protein proteolysis: fibrinogen digestion by KLK4 (SDS-PAGE); assay type: biochemical; design: pro-region of PSA (KLK3), replacing the native KLK4 pro-region (only if the E. coli preparation was used) (N, cleaved yes); made in house; conditions: inhibitor at 2 μM
# Procedure: as §1
# bovine β-trypsin = target: T1, bovine β-trypsin; experiment: Inhibitor kinetics: trypsin amidolytic activity; assay type: biochemical; conditions: substrate BAPNA (0.2 mM)
# Procedure: (§2) All enzymes and substrates were obtained from Sigma Chemicals if not otherwise specified. […] The release of pNa moiety was monitored as described above for 7 minutes with each point being the average of three independent triplicate reactions. IC50 was determined using the Prism 5 software suite (GraphPad software Inc.).
# bovine thrombin = target: T5, bovine thrombin (Bos taurus, UniProt P00735); experiment: Inhibitor kinetics: thrombin amidolytic activity; assay type: biochemical; conditions: substrate Bz-FVR-pNA (0.2 mM); read-out: IC50
# T5 construct: purchased Sigma Chemicals
# Procedure: as §2
# human matriptase = target: T2, human matriptase; experiment: Inhibitor kinetics: matriptase amidolytic activity; assay type: biochemical; conditions: substrate Bz-FVR-pNA (0.2 mM); read-out: IC50
# Procedure: as §2
# bovine α-chymotrypsin = target: T6, bovine α-chymotrypsin (Bos taurus, UniProt P00766); experiment: Inhibitor kinetics: α-chymotrypsin amidolytic activity; assay type: biochemical; conditions: substrate W-pNA (0.2 mM); read-out: IC50
# T6 construct: purchased Sigma Chemicals
# Procedure: as §2
# [2] = tested on: protease (Streptomyces griseus type XIV); experiment: Inhibitor kinetics: Streptomyces griseus type XIV protease; assay type: biochemical; conditions: substrate L-pNA
# Procedure: as §2
# [3] = Stability of SFTI variants in contact with prostate cancer cells in vitro; assay type: in vitro ADME; conditions: prostate cancer cell lines in serum containing medium
# Procedure: Cell monolayers of LNCaP, 22Rv1 and PC3 cells were established in RPMI 1640 medium containing 10% fetal calf serum. Each cell line was treated +/−1 μM SFTI-FCQR contained in 4.0 mL RPMI media (as above) with a vehicle control to account for inhibition by intrinsic media factors. 25 μL samples of media were taken at 0, 24, 48, 72, 96 and 120 hrs timepoints. Media samples were boiled at 97° C. for 15 min, centrifuged at 14,000 rpm for 5 min to remove cellular debris and precipitated protein. Residual SFTI-FCQR inhibitory activity in the medium was determined against recombinant KLK4 using FVQR-pNA as a peptide substrate as above using 15ng KLK4 and 30 nmol FVQR-pNA with 2.5 μL and […] of media+/−SFTI-FCQR added from each treatment.
# Figure 3 (D) = experiment: Figure 3 (D)
# Procedure: Table printed on a drawing sheet, Figure 3 (D)
# The patent's description of the figure: FIG. 3. Stability of SFTI variants in contact with prostate cancer cells in vitro. Residual SFTI-FCQR was assayed in tissue culture supernatants from prostate cancer cells treated with a single dose of inhibitor at time =0. Stability was assessed against LNCaP (closed circles), 22RV1 (open circles) and PC3 cells (triangles) for (A) SFTI-FCQR, (B) SFTI-FCQR Asn14 and (C) SFTI-FCQR Lys14 as summarized in (D). Data represented as mean±SEM from three independent experiments in triplicates.
# First reader's note: Half-life of residual inhibitor activity in culture supernatants of prostate cancer cell lines, summarising panels (A)-(C).
# KLK4 [4] = target: T4, KLK4; experiment: Inhibitor kinetics: KLK4 amidolytic activity with peptide-pNA substrates; assay type: biochemical; design: pro-region of PSA (KLK3), replacing the native KLK4 pro-region (N, cleaved yes); made in house
# Procedure: (§3) Human recombinant KLK4 was expressed in E. coli using a previously described chimeric KLK4 plasmid construct where the native pro-region was replaced with the pro-region of PSA, enabling autoactivation. Protein was expressed as inclusion bodies which were isolated and solubilised as described previously to yield 90% pure KLK4. Protein refolding was performed by dilution into 100 volumes of refolding buffer I (2 M urea, 0.1M NaCl, 5 mM GSH, 0.5 mM GSSG, 10 mM benzamidine, 50 mM tris HCl pH 8.0, 2 mM CaCl2) over 44 hours before further dilution into 3 volumes refolding buffer II (refolding buffer I with 0.5 M urea 0.5 mM GSH, 0.05 mM GSSG, 2 mM CaCl2) over another 24 hours. Dialysis was performed as previously described (with additional 2 mM CaCl2 to reduce aggregation) before concentration using UNO sphere Q (Biorad) eluting with tris buffered saline (pH 7.5)/2 mM CaCl2. Subsequently, the material was purified to apparent homogeneity (according to coomassie blue stained SDS PAGE) by gel filtration using Sephacryl S-200 (GE Health Care) pre-equilibrated with 50 mM Tris-HCl pH 7.5, 20 mM NaCl and 2 mM CaCl2.
# All enzymes and substrates were obtained from Sigma Chemicals if not otherwise specified. Bacterially expressed human KLK4 (37 ng), bovine β-trypsin (20 ng), bovine thrombin (20 ng), bovine α-chymotrypsin (0.5 μg), protease (0.5 μg; Streptomyces griseus type XIV), bovine plasminogen (0.5 μg), and human matriptase (30 ng; R&D Systems) were incubated with various concentrations of inhibitors in 200 μL assay buffer for 10 minutes prior to initiation by the addition of 100 μL of 0.3 mM of peptide-pNA substrates (FVQR-pNA: KLK4; BAPNA: trypsin, (Streptomyces griseus Type XIV Protease and bovine plasma plasminogen); Bz-Phe-Val-Arg-pNA: thrombin and matriptase; Trp-pNA: α-chymotrypsin; Leu-pNA: (Streptomyces griseus Type XIV Protease and bovine plasma plasminogen). The release of pNa moiety was monitored as described above for 7 minutes with each point being the average of three independent triplicate reactions. IC50 was determined using the Prism 5 software suite (GraphPad software Inc.).
# iKLK14 = target: T7, iKLK14 (Homo sapiens, UniProt Q9P0G3); experiment: Inhibitor kinetics: KLK14 amidolytic activity; assay type: biochemical
# T7 construct: made in house
# T7 sequence (Q9P0G3 41-267): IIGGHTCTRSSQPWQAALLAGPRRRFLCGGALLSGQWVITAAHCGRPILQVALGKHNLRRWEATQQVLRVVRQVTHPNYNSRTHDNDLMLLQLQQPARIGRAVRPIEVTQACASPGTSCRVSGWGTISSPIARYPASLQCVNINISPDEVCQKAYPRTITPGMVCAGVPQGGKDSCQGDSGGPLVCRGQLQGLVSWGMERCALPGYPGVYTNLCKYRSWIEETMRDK
# KLK12 = KLK12 (Homo sapiens, UniProt Q9UKR0); experiment: Protein proteolysis: fibrinogen digestion by KLK12; assay type: biochemical; conditions: at a concentration of 10000 nM
# Chain of KLK12 (Q9UKR0 18-248): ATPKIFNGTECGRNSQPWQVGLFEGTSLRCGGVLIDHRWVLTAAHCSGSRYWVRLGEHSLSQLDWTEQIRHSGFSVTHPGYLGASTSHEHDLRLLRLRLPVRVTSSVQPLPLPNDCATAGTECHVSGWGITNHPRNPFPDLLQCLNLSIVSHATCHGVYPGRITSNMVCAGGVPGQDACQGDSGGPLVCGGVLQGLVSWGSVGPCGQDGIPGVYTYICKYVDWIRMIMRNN
# KLK14 = KLK14 (Homo sapiens, UniProt Q9P0G3); experiment: Protein proteolysis: fibrinogen digestion by KLK14; assay type: biochemical; conditions: at a concentration of 10000 nM
# Chain of KLK14 (Q9P0G3 35-267 limits assumed): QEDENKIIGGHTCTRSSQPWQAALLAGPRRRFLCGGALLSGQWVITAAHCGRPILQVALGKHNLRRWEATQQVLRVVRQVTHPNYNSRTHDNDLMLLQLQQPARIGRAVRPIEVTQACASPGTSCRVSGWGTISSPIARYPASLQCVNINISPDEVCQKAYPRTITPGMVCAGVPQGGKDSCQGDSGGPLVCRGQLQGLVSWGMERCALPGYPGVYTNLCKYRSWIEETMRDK
# [5] = substrate: CC(=O)N[C@@H](Cc1ccccc1)C(=O)N[C@H](C(=O)N[C@@H](CCCNC(=N)N)C(=O)Nc1ccc([N+](=O)[O-])cc1)C(C)C; experiment: Kinetic studies of para-nitroanilide substrates with KLK4; assay type: biochemical, human; conditions: other: para-Nitroanilide substrate
# Procedure: as §3
# (§4) Kinetic Studies Active site titration was carried out according to Beynon et al., replacing α1-proteinase inhibitor with soybean trypsin inhibitor. Enzymatic activity assays were performed with 4.9 nM KLK4 and substrate concentrations in the range of 0-600 μM in 300 μL of assay buffer with hydrolysis monitored over 5 minutes as described for the substrate screen. The data was fitted to the Michaelis-Menten equation by […] analysis using the Prism 5 software suite (GraphPad Software Inc.).
# [6] = substrate: CC(C)[C@H](NC(=O)[C@H](Cc1ccccc1)NC(=O)c1ccccc1)C(=O)N[C@@H](CCCNC(=N)N)C(=O)Nc1ccc([N+](=O)[O-])cc1; experiment: as above; assay type: biochemical, human; conditions: other: para-Nitroanilide substrate
# Procedure: as §3, §4
# [7] = substrate: CSCC[C@H](NC(=O)[C@@H](NC(=O)[C@@H](N)Cc1ccccc1)C(C)C)C(=O)N[C@@H](CCCNC(=N)N)C(=O)Nc1ccc([N+](=O)[O-])cc1; experiment: as above; assay type: biochemical, human; conditions: other: para-Nitroanilide substrate
# Procedure: as §3, §4
# [8] = substrate FVQR-pNA (0.2 mM), read-out: IC50
molecule,measurement,setting,value
"Sunflower trypsin inhibitor [SFTI-1, reference compound]",concentration that completely inhibits trypsin digestion of fibrinogen,trypsin,31.25 nM
same,Ki,"Thrombin; substrate N-t-Boc-LRR-AMC, Long et al. 2001",5.05 µM
same,Ki,"Thrombin; substrate Unknown, Luckett et al. 1999",0.136 µM
same,inhibition of fibrinogen proteolysis by KLK4,KLK4 [1],no inhibition
CC[C@H](C)[C@@H]1NC(=O)[C@@H]2CCCN2C(=O)[C@@H]2CCCN2C(=O)[C@H]([C@@H](C)CC)NC(=O)[C@H](CO)NC(=O)[C@H](CCCNC(=N)N)NC(=O)[C@H](CCC(N)=O)NC(=O)[C@@H]2CSSC[C@H](NC1=O)C(=O)N[C@@H](Cc1ccccc1)C(=O)N1CCC[C@H]1C(=O)N[C@@H](CCCCN)C(=O)NCC(=O)N[C@@H](Cc1ccccc1)C(=O)N2 [SFTI-FCQR Lys14] (cyclo(GFCQRSIPPICFPK); disulfide 3-11),IC50,bovine β-trypsin,Inhibitor degraded
same,IC50,bovine thrombin,> 10 µM
same,IC50,human matriptase,> 10 µM
same,IC50,bovine α-chymotrypsin,> 10 µM
same,IC50,[2],> 10 µM
same,half life of inhibition (in words),[3],curtailed half life
same,Half-life,Figure 3 (D),9 h and 10 h
same,IC50 against KLK4 compared with SFTI-FCQR Asn14,KLK4 [4]; substrate FVQR-pNA,nearly three orders of magnitude higher
same,IC50,KLK4 [4]; [8],98.9 ± 4.09 nM
CC[C@H](C)[C@@H]1NC(=O)[C@H](C)NC(=O)[C@@H]2CCCN2C(=O)[C@H]([C@@H](C)CC)NC(=O)[C@H](CO)NC(=O)[C@H](CCCNC(=N)N)NC(=O)[C@H](CCC(N)=O)NC(=O)[C@@H]2CSSC[C@H](NC1=O)C(=O)N[C@@H](Cc1ccccc1)C(=O)N1CCC[C@H]1C(=O)N[C@@H](CC(=O)O)C(=O)NCC(=O)N[C@@H](Cc1ccccc1)C(=O)N2 [SFTI-FCQR Ala9] (cyclo(AICFPDGFCQRSIP); disulfide 3-9),IC50,KLK4 [4]; [8],1140 ± 76 nM
CC[C@H](C)[C@@H]1NC(=O)[C@@H]2CCCN2C(=O)[C@@H]2CCCN2C(=O)[C@H]([C@@H](C)CC)NC(=O)[C@H](CO)NC(=O)[C@H](CCCNC(=N)N)NC(=O)[C@H](CCC(N)=O)NC(=O)[C@@H]2CSSC[C@H](NC1=O)C(=O)N[C@@H](Cc1ccccc1)C(=O)N1CCC[C@H]1C(=O)N[C@@H](CC(N)=O)C(=O)NCC(=O)N[C@@H](Cc1ccccc1)C(=O)N2 [SFTI-FCQR Asn14] (cyclo(GFCQRSIPPICFPN); disulfide 3-11),IC50,iKLK14,0.251 ± 0.00665 µM
same,IC50,bovine β-trypsin; read-out: IC50,2.58 ± 0.508 µM
same,IC50,bovine thrombin,> 10 µM
same,IC50,human matriptase,> 10 µM
same,IC50,bovine α-chymotrypsin,> 10 µM
same,IC50,[2],> 10 µM
same,inhibition of KLK12 digestion of fibrinogen,KLK12,did not inhibit
same,inhibition of KLK14 digestion of fibrinogen,KLK14,did not inhibit
same,half life of inhibition (in words),[3],in the order of days
same,Half-life,Figure 3 (D),70 h
same,IC50,KLK4 [4],0.063 ± 0.002 nM
B1,Km,[5],194.9 ± 41.4 µM
same,kcat,[5],0.3 ± 0.032 s⁻¹
same,kcat/Km,[5],1540 ± 240 M⁻¹ s⁻¹
same,Km,[6],42.5 ± 5.9 µM
same,kcat,[6],0.57 ± 0.031 s⁻¹
same,kcat/Km,[6],13400 ± 1500 M⁻¹ s⁻¹
same,Km,[7],74.7 ± 10.3 µM
